How the values were obtained:
[1] = tested on: mouse model of rheumatoid arthritis; settings: in vivo; cited from earlier work
[2] = tested on: model of systemic lupus erythematosis; settings: in vivo; cited from earlier work
human B cells = test: Human B cells proliferation stimulated by anti-IgM; assay type: cell-based; settings: B-cell; anti-Human IgM + CD40L-LZ, 72 h, 3H thymidine
Experimental: Human B Cells Proliferation Stimulate by Anti-IgM
Isolate PBMCs from Leukopac or from human fresh blood. Isolate human B cells by using Miltenyi protocol and B cell isolation kit II.—human B cells were Purified by using AutoMacs.column.
Activation of Human B Cells
Use 96 well Flat bottom plate, plate 50000/well purified B cells in B cell proliferation medium (DMEM+5% FCS, 10 mM Hepes, 50 μM 2-mercaptoethanol); 150 μL medium contain 250 ng/mL CD40L-LZ recombinant protein (Amgen) and 2 μg/mL anti-Human IgM antibody (Jackson ImmunoReseach Lab.# 109-006-129), mixed with 50 μL B cell medium containing PI3K inhibitors and incubate 72 h at 37° C. incubator. After 72 h, pulse labeling B cells with 0.5-1 uCi/well ^3H thymidine for overnight ˜18 h, and harvest cell using TOM harvester.

p110δ = target: T1, p110δ (Homo sapiens, UniProt O00329); settings: cited from earlier work
T1 sequence (O00329 1-1044): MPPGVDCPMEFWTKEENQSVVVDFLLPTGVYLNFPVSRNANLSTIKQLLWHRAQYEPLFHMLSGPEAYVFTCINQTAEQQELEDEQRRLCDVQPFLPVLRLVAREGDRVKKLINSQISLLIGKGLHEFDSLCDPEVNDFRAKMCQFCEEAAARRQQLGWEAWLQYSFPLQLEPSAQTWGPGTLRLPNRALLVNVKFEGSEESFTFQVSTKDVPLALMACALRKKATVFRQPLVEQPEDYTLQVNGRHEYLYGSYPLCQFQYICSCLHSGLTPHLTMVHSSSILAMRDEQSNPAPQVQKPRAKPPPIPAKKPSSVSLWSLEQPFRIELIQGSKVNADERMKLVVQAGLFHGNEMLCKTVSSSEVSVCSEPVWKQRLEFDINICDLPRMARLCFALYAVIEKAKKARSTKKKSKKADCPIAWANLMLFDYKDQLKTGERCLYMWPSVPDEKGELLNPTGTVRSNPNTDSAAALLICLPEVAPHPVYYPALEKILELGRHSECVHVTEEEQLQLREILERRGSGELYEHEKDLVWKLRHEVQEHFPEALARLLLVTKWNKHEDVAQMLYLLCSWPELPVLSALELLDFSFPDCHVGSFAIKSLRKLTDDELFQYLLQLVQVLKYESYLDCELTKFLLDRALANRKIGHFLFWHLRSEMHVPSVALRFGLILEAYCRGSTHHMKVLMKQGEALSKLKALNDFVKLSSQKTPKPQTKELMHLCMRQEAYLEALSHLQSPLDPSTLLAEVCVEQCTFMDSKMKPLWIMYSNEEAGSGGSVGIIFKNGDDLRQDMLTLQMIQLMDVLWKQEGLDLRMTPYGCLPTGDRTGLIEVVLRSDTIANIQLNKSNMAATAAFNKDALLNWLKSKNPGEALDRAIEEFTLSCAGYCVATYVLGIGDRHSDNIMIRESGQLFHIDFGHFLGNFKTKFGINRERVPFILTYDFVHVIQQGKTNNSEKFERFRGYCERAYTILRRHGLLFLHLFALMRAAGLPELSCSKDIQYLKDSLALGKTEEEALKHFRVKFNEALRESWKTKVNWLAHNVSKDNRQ

protein kinases = settings: cited from earlier work
murine model of asthma = settings: ovalbumin-induced airway inflammation; cited from earlier work

O=C1NC(=O)/C(=C\c2ccc3nccnc3c2)S1 [AS 605240]
efficacy in mouse model of rheumatoid arthritis [1]: efficacious | onset of disease in model of systemic lupus erythematosis [2]: delay onset of disease

Cn1cc(-c2nn(Cc3cc4c(Cl)cccc4nc3-c3ccccc3Cl)c3ncnc(N)c23)cn1 [Example 26, 1-((5-chloro-2-(2-chlorophenyl)quinolin-3-yl)methyl)-3-(1-methyl-1H-pyrazol-4-yl)-1H-pyrazolo[3,4-d]pyrimidin-4-amine]
IC50 (human B cells): 46.7 nM

Cc1nn(Cc2cc3cccc(Cl)c3nc2-c2ccccc2C(F)(F)F)c2ncnc(N)c12 [Example 30, 1-((8-chloro-2-(2-(trifluoromethyl)phenyl)quinolin-3-yl)methyl)-3-methyl-1H-pyrazolo[3,4-d]pyrimidin-4-amine]
IC50 (human B cells): 44.8 nM

Cc1nn(Cc2cc3c(Cl)cccc3nc2-c2ccccc2C(F)(F)F)c2ncnc(N)c12 [Example 31, 1-((5-Chloro-2-(2-(trifluoromethyl)phenyl)quinolin-3-yl)methyl)-3-methyl-1H-pyrazolo[3,4-d]pyrimidin-4-amine]
IC50 (human B cells): 136 nM

Cc1ccccc1-n1c(Cn2cnc3c(N)ncnc32)nc2cccc(C)c2c1=O [IC87114]
inhibition of p110δ (p110δ): high nanomolar range (triple digit) | activity against any protein kinases tested (protein kinases): no activity | inflammation and disease in murine model of asthma (murine model of asthma): significantly ameliorate inflammation and disease

Source: US7919498B2, “Substituted pyrazolo[3,4-d]pyrimidines as PI3K inhibitors” (Amgen Inc., priority 2007, dated 2011)
